Measurements from the supplement of paper PMC13380429.

Tests used:
Details in all cases: 72 h
Vero E6 [1] = assay: cell viability relative to DMSO; higher = less toxic
HepG2 [2] = assay: as above
Calu-3 [3] = assay: as above
Caco-2 [4] = assay: as above
U2OS [5] = assay: as above
Vero E6 [6] = assay: relative viability EC50 (midpoint between 100% and the lowest measured viability); higher = less toxic
HepG2 [7] = assay: as above
Caco-2 [8] = assay: as above
U2OS [9] = assay: as above
Vero E6 [10] = assay: drug sensitivity score (DSS) for viability; higher = more toxic; extreme values may be limits of the assay
HepG2 [11] = assay: as above
Calu-3 [12] = assay: as above
Caco-2 [13] = assay: as above
U2OS [14] = assay: as above
Calu-3 [15] = assay: relative viability EC50 (midpoint between 100% and the lowest measured viability); higher = less toxic

SMILES | cell viability (Vero E6 [1]; 1 nM) [%] | cell viability (Vero E6 [1]; 10 nM) [%] | cell viability (Vero E6 [1]; 100 nM) [%] | cell viability (Vero E6 [1]; 1000 nM) [%] | cell viability (Vero E6 [1]; 10000 nM) [%] | cell viability (HepG2 [2]; 1 nM) [%] | cell viability (HepG2 [2]; 10 nM) [%] | cell viability (HepG2 [2]; 100 nM) [%] | cell viability (HepG2 [2]; 1000 nM) [%] | cell viability (HepG2 [2]; 10000 nM) [%] | cell viability (Calu-3 [3]; 1 nM) [%] | cell viability (Calu-3 [3]; 10 nM) [%] | cell viability (Calu-3 [3]; 100 nM) [%] | cell viability (Calu-3 [3]; 1000 nM) [%] | cell viability (Calu-3 [3]; 10000 nM) [%] | cell viability (Caco-2 [4]; 1 nM) [%] | cell viability (Caco-2 [4]; 10 nM) [%] | cell viability (Caco-2 [4]; 100 nM) [%] | cell viability (Caco-2 [4]; 1000 nM) [%] | cell viability (Caco-2 [4]; 10000 nM) [%] | cell viability (U2OS [5]; 1 nM) [%] | cell viability (U2OS [5]; 10 nM) [%] | cell viability (U2OS [5]; 100 nM) [%] | cell viability (U2OS [5]; 1000 nM) [%] | cell viability (U2OS [5]; 10000 nM) [%] | relative viability EC50 (Vero E6 [6]) [µM] | relative viability EC50 (HepG2 [7]) [µM] | relative viability EC50 (Caco-2 [8]) [µM] | relative viability EC50 (U2OS [9]) [µM] | drug sensitivity score (Vero E6 [10]) | drug sensitivity score (HepG2 [11]) | drug sensitivity score (Calu-3 [12]) | drug sensitivity score (Caco-2 [13]) | drug sensitivity score (U2OS [14]) | relative viability EC50 (Calu-3 [15]) [µM]
Cn1ncc(Cl)c1-c1cc(C(=O)N[C@H](CN)Cc2cccc(F)c2)sc1Cl | 91.8 | 101 | 91.5 | 93.6 | 100 | 86.8 | 101 | 96.7 | 93.8 | 84.7 | 98 | 97.6 | 104 | 89.7 | 63.6 | 83.6 | 85.6 | 95.3 | 79.7 | 71 | 97.2 | 95.6 | 97.9 | 94.1 | 89.2 | > 10 | > 10 | > 10 | > 10 | 0 | 0 | 3.3 | 0 | 0 | 
C[N+](C)(C)NCCC(=O)O [meldonium] | 99.1 | 105 | 95.5 | 97 | 101 | 97.6 | 96.1 | 98.4 | 107 | 101 |  |  |  |  |  | 96.1 | 101 | 102 | 92 | 102 | 102 | 99.1 | 104 | 97.7 | 101 | > 10 | > 10 | > 10 | > 10 | 0 | 0 |  | 0 | 0 | 
CCn1nc(C2CCN(C(=O)CCO)CC2)nc1-c1cnc(N)c(-c2nnc(C(C)(C)C)o2)n1 [AZD8835] | 96.9 | 97.9 | 93.7 | 96 | 70 | 101 | 101 | 95.1 | 78.7 | 64 | 102 | 96.3 | 99.1 | 81.4 | 41.8 | 94.1 | 93.6 | 91.3 | 86.6 | 64.3 | 102 | 97.5 | 99 | 85.2 | 70.5 |  |  |  |  | 2 | 4.1 | 5.9 | 3.2 | 2.8 | 1.35
CC#CC(=O)N1CCC[C@H]1c1nc(-c2ccc(C(=O)Nc3ccccn3)cc2)c2c(N)nccn12 [acalabrutinib] | 91.4 | 99.7 | 93.1 | 96.7 | 98.2 | 95.9 | 96.7 | 95 | 103 | 102 | 99.5 | 89.1 | 84.2 | 67.8 | 65.3 | 92.1 | 101 | 99.4 | 90.5 | 97.8 | 99.3 | 95.6 | 105 | 95.3 | 102 | > 10 | > 10 | > 10 | > 10 | 0 | 0 | 7.3 | 0 | 0 | 
C=C1/C(=C\C=C2/CCC[C@]3(C)[C@@H]([C@H](C)OCCC(C)(C)O)CC[C@@H]23)C[C@@H](O)C[C@@H]1O [maxacalcitol] | 109 | 105 | 102 | 100 | 94.6 | 105 | 99.3 | 98.3 | 91.5 | 98.5 |  |  |  |  |  | 91.9 | 91.3 | 94.1 | 87.8 | 101 | 102 | 103 | 93.5 | 91.6 | 97.4 | > 10 | > 10 | > 10 | > 10 | 0 | 0 |  | 0 | 0 | 
C[C@]12CC/C(=N\OCCN)C[C@@H]1C(=O)C[C@@H]1[C@@H]2CC[C@]2(C)C(=O)CC[C@@H]12 [istaroxime] | 106 | 105 | 98.3 | 97.9 | 61.1 | 110 | 102 | 88.6 | 99.7 | 87.2 | 94.5 | 96.5 | 93 | 91.1 | 95.5 | 97.6 | 93.1 | 95.7 | 88.4 | 71.7 | 98.8 | 96.9 | 101 | 95.7 | 51.4 |  | > 10 |  |  | 2.2 | 0 | 0 | 2.1 | 3.2 | > 10
CCn1c(-c2nonc2N)nc2cnc(Oc3cccc(NC(=O)c4ccc(OCCN5CCOCC5)cc4)c3)cc21 | 96.5 | 99.3 | 88.9 | 72.2 | 72.1 | 96.6 | 107 | 114 | 80.4 | 52.4 | 97.9 | 123 | 144 | 131 | 125 | 94.9 | 98 | 94.9 | 97.8 | 67.7 | 97.5 | 98.6 | 91.4 | 78.5 | 62.1 |  |  |  |  | 5.9 | 5.1 | 0 | 1.8 | 4.4 | > 10
CCCNC(=O)NS(=O)(=O)c1ccc(Cl)cc1 [chlorpropamide] | 97.5 | 98.2 | 102 | 103 | 104 | 104 | 103 | 102 | 95.4 | 99.8 |  |  |  |  |  | 92.6 | 108 | 87.1 | 99.1 | 95.2 | 97.4 | 103 | 97.4 | 99.9 | 93.6 | > 10 | > 10 | > 10 | > 10 | 0 | 0 |  | 0 | 0 | 
O=C(O)c1cc(/N=N/c2ccc(O)c(C(=O)O)c2)ccc1O [olsalazine] |  |  |  |  |  |  |  |  |  |  | 107 | 94.3 | 94.4 | 100 | 105 | 96.8 | 107 | 104 | 106 | 91.9 | 99 | 102 | 103 | 107 | 103 |  |  | > 10 | > 10 |  |  | 0 | 0 | 0 | > 10
COc1cc(/C=C(\C#N)C(N)=O)cc(CSc2nc3ccccc3s2)c1O [tyrphostin-AG-825] | 92.6 | 97 | 94.7 | 93.8 | 105 | 105 | 92.4 | 103 | 97.3 | 108 |  |  |  |  |  | 102 | 103 | 96.2 | 107 | 96.4 | 94.7 | 99.9 | 97.7 | 96 | 101 | > 10 | > 10 | > 10 | > 10 | 0 | 0 |  | 0 | 0 | 
c1ccc2nc(C3=NCCN3)cnc2c1 [BU-239] |  |  |  |  |  | 99.2 | 104 | 112 | 104 | 101 | 101 | 106 | 95.4 | 112 | 99.8 | 97.1 | 101 | 102 | 102 | 100 |  |  |  |  |  |  | > 10 | > 10 |  |  | 0 | 0 | 0 |  | > 10
C/C=C/C[C@@H](C)C(=O)[C@H]1C(=O)N[C@@H](C(C)C)C(=O)N(C)CC(=O)N(C)[C@@H](CC(C)C)C(=O)N[C@@H](C(C)C)C(=O)N(C)[C@@H](CC(C)C)C(=O)N[C@@H](C)C(=O)N[C@H](C)C(=O)N(C)[C@@H](CC(C)C)C(=O)N(C)[C@@H](CC(C)C)C(=O)N(C)[C@@H](C(C)C)C(=O)N1C [valspodar] |  |  |  |  |  |  |  |  |  |  | 109 | 99.8 | 95.4 | 105 | 82.2 | 119 | 111 | 106 | 73.5 | 50.7 | 99.9 | 96.4 | 102 | 99.7 | 87.4 |  |  |  | > 10 |  |  | 0.3 | 5.9 | 0.1 | > 10
C[C@H](/C=C/[C@H](C)C(C)(C)O)[C@H]1CC[C@H]2/C(=C/C=C3C[C@@H](O)C[C@H](O)C3)CCC[C@]12C [paricalcitol] | 96.6 | 97.3 | 95.4 | 103 | 101 | 101 | 99.2 | 99.3 | 95.6 | 82.1 |  |  |  |  |  | 102 | 101 | 98.8 | 89.8 | 96.5 | 107 | 98.1 | 98.9 | 97.6 | 99.3 | > 10 | > 10 | > 10 | > 10 | 0 | 0.9 |  | 0.1 | 0 | 
COc1cc2c(cc1OC)[C@@H]1Cc3ccc(OC)c(OC)c3CN1CC2 [rotundine] |  |  |  |  |  |  |  |  |  |  | 103 | 108 | 99.8 | 101 | 89.2 | 102 | 98.1 | 94.8 | 109 | 91 |  |  |  |  |  |  |  | > 10 |  |  |  | 0 | 0 |  | > 10
CN(C)CCn1nnnc1SCC1=C(C(=O)O)N2C(=O)[C@@H](NC(=O)Cc3csc(N)n3)[C@H]2SC1 [cefotiam] | 99.3 | 95.5 | 96 | 88.1 | 104 | 102 | 94.5 | 99.7 | 96.5 | 104 |  |  |  |  |  | 106 | 96.7 | 101 | 103 | 104 | 100 | 97.2 | 106 | 103 | 103 | > 10 | > 10 | > 10 | > 10 | 0 | 0 |  | 0 | 0 | 
c1ccc2c(Oc3nc(Nc4ccc(N5CCOCC5)cc4)c4ncn(C5CCCCC5)c4n3)cccc2c1 [purmorphamine] | 99.2 | 96.1 | 100 | 91.7 | 90.1 | 97.4 | 105 | 103 | 91.9 | 77.8 | 92.7 | 92.4 | 94.3 | 106 | 74.3 | 94.9 | 94.2 | 89.8 | 98.7 | 85.9 |  |  |  |  |  | > 10 | > 10 | > 10 |  | 0 | 1.7 | 0.7 | 0 |  | 
COc1cc(-c2ncn(/C=C\C(=O)OC(C)C)n2)cc(C(F)(F)F)c1 [KPT-185] | 97.1 | 102 | 96.4 | 41.8 | 20 | 105 | 100 | 84.3 | 29.1 | 23.9 | 99.4 | 91.1 | 81.8 | 55.6 | 51.9 | 94.7 | 96.5 | 92.2 | 57 | 38.9 | 98.1 | 93.7 | 89.5 | 11.3 | 4.1 | 0.573 | 0.218 | 0.48 | 0.284 | 11.6 | 15.1 | 10 | 9 | 17.6 | 
